Read-outs that look alike come from different tables or passages of the source.

For experiment [1], the target named is human α2δ-1 subunit of Cav2.2 calcium channel (Homo sapiens (Human), UniProt P54289). Put plainly: Binding assay to human α2δ-1 subunit of Cav2.2 calcium channel ([3H]-Gabapentin). Particulars: read-out: Ki (nM) α2δ-1. The gist of the method: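 Radioactivity on dried GF/C filters quantified by scintillation after filtration and three cold Tris-HCl (pH 7.4) washes. Incubation ran 60 min at 27° C with [3H]-gabapentin; 10 μM pregabalin gave nonspecific binding.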

Experiment [2] addresses human norepinephrine transporter (NET) (Homo sapiens (Human), UniProt P23975). Put plainly: Binding assay to human norepinephrine transporter (NET) ([3H]-Nisoxetin). The following applies: Table 2, dual compounds; [3H]-Nisoxetin binding. In short, it runs like this:
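NET-enriched membranes (5 μg) incubated with 5 nM [3H]-nisoxetin in 50 mM Tris-HCl, 120 mM NaCl, 5 mM KCl, pH 7.4, 60 min at 4 °C. Bound ligand separated by filtration on PEI-soaked GF/C and counted by scintillation; nonspecific binding defined with 1 μM competitor.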

The mark [3] stands for this setting: Table 2, dual compounds, [3H]-Gabapentin binding.
Setting [4] is: binding to α2δ-1, [3H]-Gabapentin.

Chain of human α2δ-1 subunit of Cav2.2 calcium channel (P54289 25-1103): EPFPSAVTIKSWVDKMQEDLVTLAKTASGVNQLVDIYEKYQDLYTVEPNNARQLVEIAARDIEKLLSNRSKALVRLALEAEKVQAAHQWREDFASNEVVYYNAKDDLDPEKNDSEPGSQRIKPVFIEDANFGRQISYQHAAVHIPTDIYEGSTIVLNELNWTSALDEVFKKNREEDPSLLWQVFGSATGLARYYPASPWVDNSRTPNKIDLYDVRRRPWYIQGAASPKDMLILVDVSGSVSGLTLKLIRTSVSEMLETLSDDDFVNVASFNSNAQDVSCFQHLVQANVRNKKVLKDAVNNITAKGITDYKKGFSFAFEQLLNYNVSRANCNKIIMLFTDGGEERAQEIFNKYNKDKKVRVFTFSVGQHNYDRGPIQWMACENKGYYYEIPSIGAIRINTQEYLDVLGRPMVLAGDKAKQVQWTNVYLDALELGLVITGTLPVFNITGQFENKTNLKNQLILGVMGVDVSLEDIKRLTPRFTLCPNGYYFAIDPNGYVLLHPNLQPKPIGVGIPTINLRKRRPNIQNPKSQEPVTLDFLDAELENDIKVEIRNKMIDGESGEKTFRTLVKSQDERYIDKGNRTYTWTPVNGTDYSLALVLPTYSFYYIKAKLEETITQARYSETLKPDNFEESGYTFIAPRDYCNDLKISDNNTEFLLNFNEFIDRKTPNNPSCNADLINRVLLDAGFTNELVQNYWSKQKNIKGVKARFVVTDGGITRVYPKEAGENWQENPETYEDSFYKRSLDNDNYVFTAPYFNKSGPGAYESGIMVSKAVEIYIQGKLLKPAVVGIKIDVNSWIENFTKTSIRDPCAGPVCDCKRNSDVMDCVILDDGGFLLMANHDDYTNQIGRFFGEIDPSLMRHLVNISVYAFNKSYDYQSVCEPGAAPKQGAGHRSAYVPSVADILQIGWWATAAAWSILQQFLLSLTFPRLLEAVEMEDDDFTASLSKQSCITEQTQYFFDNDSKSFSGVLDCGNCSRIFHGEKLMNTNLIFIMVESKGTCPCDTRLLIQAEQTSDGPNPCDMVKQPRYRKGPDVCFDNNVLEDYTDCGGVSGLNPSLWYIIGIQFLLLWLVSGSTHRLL
Chain of human norepinephrine transporter (NET) (P23975 whole entry): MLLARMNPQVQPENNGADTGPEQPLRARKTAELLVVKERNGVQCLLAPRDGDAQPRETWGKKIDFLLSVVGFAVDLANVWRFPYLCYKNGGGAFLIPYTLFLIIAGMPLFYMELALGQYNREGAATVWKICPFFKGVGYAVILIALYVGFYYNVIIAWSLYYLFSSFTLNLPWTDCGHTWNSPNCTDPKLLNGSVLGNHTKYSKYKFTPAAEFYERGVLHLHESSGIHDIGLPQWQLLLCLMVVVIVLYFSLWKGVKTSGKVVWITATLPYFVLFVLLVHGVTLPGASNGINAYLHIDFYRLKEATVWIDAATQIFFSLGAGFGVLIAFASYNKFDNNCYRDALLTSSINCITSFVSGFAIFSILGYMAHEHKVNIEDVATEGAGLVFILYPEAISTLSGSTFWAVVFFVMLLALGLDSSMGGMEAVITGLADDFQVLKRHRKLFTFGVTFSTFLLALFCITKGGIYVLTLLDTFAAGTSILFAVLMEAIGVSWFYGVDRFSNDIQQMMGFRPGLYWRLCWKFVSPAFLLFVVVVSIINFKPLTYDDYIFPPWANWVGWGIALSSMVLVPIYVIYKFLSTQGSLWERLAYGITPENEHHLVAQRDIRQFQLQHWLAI

As usually defined, the Ki is a dissociation constant, usually derived from enzyme kinetics or from competition with a known ligand. As to `CNCC[C@H](Oc1ccc(CN2CCN(C)c3cc(OC)ncc3C2=O)cc1)c1cccs1` [Example 385, (S)-8-methoxy-1-methyl-4-(4-(3-(methylamino)-1-(thiophen-2-yl)propoxy)benzyl)-1,2,3,4-tetrahydro-5H-pyrido[4,3-e][1,4]diazepin-5-one], the inhibition constant (Ki) in experiment [1] (setting [3]), in experiment [1] (setting [4]) and in experiment [2] was 100 to 500 nM in each case.

As for `CNCCC(OCc1ccc(CN2CCN(C)c3nc(C)ncc3C2=O)cc1)c1ccccc1` (stereo not drawn) [Example 422, 2,9-dimethyl-6-(4-((3-(methylamino)-1-phenylpropoxy)methyl)benzyl)-6,7,8,9-tetrahydro-5H-pyrimido[4,5-e][1,4]diazepin-5-one], the results for the Ki in experiment [1] (setting [3]), in experiment [1] (setting [4]) and in experiment [2] were above 3000 nM, above 3000 nM and 500 to 1000 nM, respectively.

As to `CCNc1ncc2c(n1)N(C)CCN(c1cccc(-n3cc(CN(C)CCc4ccccc4)cn3)c1)C2=O` [Example 252, 2-(ethylamino)-9-methyl-6-(3-(4-((methyl(phenethyl)amino)methyl)-1H-pyrazol-1-yl)phenyl)-6,7,8,9-tetrahydro-5H-pyrimido[4,5-e][1,4]diazepin-5-one], the Ki in experiment [1] (setting [3]) fell in the range of 500 to 3000 nM; in experiment [1] (setting [4]), 500 to 3000 nM; in experiment [2] it was 100 to 500 nM.

Regarding `CNCC[C@@H](Oc1cccc(N2CCN(C)c3nc(SC)ncc3C2=O)c1)c1ccccc1` [Example 152, (R)-9-methyl-6-(3-(3-(methylamino)-1-phenylpropoxy)phenyl)-2-(methylthio)-6,7,8,9-tetrahydro-5H-pyrimido[4,5-e][1,4]diazepin-5-one], the figures for the Ki in experiment [1] (setting [3]), in experiment [1] (setting [4]) and in experiment [2] were 500 to 3000 nM, 500 to 3000 nM and 100 to 500 nM, respectively.

Turning to `CNCC[C@H](Oc1ccc(CN2CCN(C)c3cc(C)ncc3C2=O)cc1)c1cccs1` [Example 308, (S)-1,8-dimethyl-4-(4-(3-(methylamino)-1-(thiophen-2-yl)propoxy)benzyl)-1,2,3,4-tetrahydro-5H-pyrido[4,3-e][1,4]diazepin-5-one], the inhibition constant Ki in experiment [1] (setting [3]), in experiment [1] (setting [4]) and in experiment [2] was 100 to 500 nM in each case.

For `CCNc1ncc2c(n1)N(C)CCN(c1cccc(C3CCN(CCc4ccccc4)CC3)c1)C2=O` [Example 261, 2-(ethylamino)-9-methyl-6-(3-(1-phenethylpiperidin-4-yl)phenyl)-6,7,8,9-tetrahydro-5H-pyrimido[4,5-e][1,4]diazepin-5-one], the inhibition constant (Ki) in experiment [1] (setting [3]), in experiment [1] (setting [4]) and in experiment [2] was 100 to 500 nM throughout.

Regarding `CNCC[C@H](Oc1ccc(CN2CCN(C)c3cc(N)ncc3C2=O)cc1)c1cccs1` [Example 305, (S)-8-amino-1-methyl-4-(4-(3-(methylamino)-1-(thiophen-2-yl)propoxy)benzyl)-1,2,3,4-tetrahydro-5H-pyrido[4,3-e][1,4]diazepin-5-one], the Ki in experiment [1] (setting [3]), in experiment [1] (setting [4]) and in experiment [2] was 100 to 500 nM throughout.

Consider `CCNc1cc2c(cn1)C(=O)N(c1cccc(OC(CCNC)c3ccccc3)c1)CCN2C` (stereo not drawn) [Example 198, 8-(ethylamino)-1-methyl-4-(3-(3-(methylamino)-1-phenylpropoxy)phenyl)-1,2,3,4-tetrahydro-5H-pyrido[4,3-e][1,4]diazepin-5-one], for which the inhibition constant Ki in experiment [1] (setting [3]) is 500 to 3000 nM; in experiment [1] (setting [4]), 500 to 3000 nM; in experiment [2], 100 to 500 nM.

As to `CCNc1ncc2c(n1)N(C)CCN(c1cccc(-n3cnc(CN(C)Cc4ccccc4)c3)c1)C2=O` [Example 253, 6-(3-(4-((benzyl(methyl)amino)methyl)-1H-imidazol-1-yl)phenyl)-2-(ethylamino)-9-methyl-6,7,8,9-tetrahydro-5H-pyrimido[4,5-e][1,4]diazepin-5-one], the Ki in experiment [1] (setting [3]), in experiment [1] (setting [4]) and in experiment [2] was 100 to 500 nM in each case.

Turning to `CNCCC(Oc1ccc(CN2CCN(C)c3ccncc3C2=O)cc1)c1cccs1` (stereo not drawn) [Example 381, 1-methyl-4-(4-(3-(methylamino)-1-(thiophen-2-yl)propoxy)benzyl)-1,2,3,4-tetrahydro-5H-pyrido[4,3-e][1,4]diazepin-5-one], the Ki in experiment [1] (setting [3]), in experiment [1] (setting [4]) and in experiment [2] was 100 to 500 nM each time.

Regarding `CNCC[C@@H](Oc1ccc(CN2CCN(C)c3ncncc3C2=O)cc1)c1ccccc1` [Example 434, (R)-9-methyl-6-(4-(3-(methylamino)-1-phenylpropoxy)benzyl)-6,7,8,9-tetrahydro-5H-pyrimido[4,5-e][1,4]diazepin-5-one], the Ki in experiment [1] (setting [3]) is above 3000 nM; in experiment [1] (setting [4]), above 3000 nM; in experiment [2] it was 100 to 500 nM.

On to `CNC(COCc1cccc(N2CCN(C)c3nc(SC)ncc3C2=O)c1)c1ccccc1` (stereo not drawn) [Example 167, 9-methyl-6-(3-((2-(methylamino)-2-phenylethoxy)methyl)phenyl)-2-(methylthio)-6,7,8,9-tetrahydro-5H-pyrimido[4,5-e][1,4]diazepin-5-one], for which the inhibitory constant (Ki) was above 3000 nM in experiment [1] (setting [3]), above 3000 nM in experiment [1] (setting [4]) and above 1000 nM in experiment [2].

As to `CCNc1ncc2c(n1)N(C)CCN(c1cccc(-n3cnc(CN(C)CCc4ccccc4)c3)c1)C2=O` [Example 254, 2-(ethylamino)-9-methyl-6-(3-(4-((methyl(phenethyl)amino)methyl)-1H-imidazol-1-yl)phenyl)-6,7,8,9-tetrahydro-5H-pyrimido[4,5-e][1,4]diazepin-5-one], the Ki was 500 to 3000 nM in experiment [1] (setting [3]), 500 to 3000 nM in experiment [1] (setting [4]) and 500 to 1000 nM in experiment [2].

Consider `CCNc1ncc2c(n1)N(C)CCN(c1cccc(OC(CN(C)C)c3ccccc3)c1)C2=O` (stereo not drawn) [Example 239, 6-(3-(2-(dimethylamino)-1-phenylethoxy)phenyl)-2-(ethylamino)-9-methyl-6,7,8,9-tetrahydro-5H-pyrimido[4,5-e][1,4]diazepin-5-one], for which the inhibitory constant (Ki) in experiment [1] (setting [3]) was above 3000 nM; in experiment [1] (setting [4]), above 3000 nM; in experiment [2], 500 to 1000 nM.

Turning to `CCNc1ncc2c(n1)N(C)CCN(c1cccc(-n3cc(CN(C)Cc4ccccn4)nn3)c1)C2=O` [Example 288, 2-(ethylamino)-9-methyl-6-(3-(4-((methyl(pyridin-2-ylmethyl)amino)methyl)-1H-1,2,3-triazol-1-yl)phenyl)-6,7,8,9-tetrahydro-5H-pyrimido[4,5-e][1,4]diazepin-5-one], the Ki in experiment [1] (setting [3]) lay within 500 to 3000 nM; in experiment [1] (setting [4]) it was 500 to 3000 nM; in experiment [2], 100 to 500 nM.

In the case of `CNCC[C@H](Oc1cccc(N2CCN(C)c3cc(N)ncc3C2=O)c1)c1cccs1` [Example 304, (S)-8-amino-1-methyl-4-(3-(3-(methylamino)-1-(thiophen-2-yl)propoxy)phenyl)-1,2,3,4-tetrahydro-5H-pyrido[4,3-e][1,4]diazepin-5-one], the Ki in experiment [1] (setting [3]), in experiment [1] (setting [4]) and in experiment [2] was 100 to 500 nM in each case.

For the molecule `CCNc1ncc2c(n1)N(C)CCN(c1cccc(OC(CNC)c3ccccc3)c1)C2=O` (stereo not drawn) [Example 154, 2-(ethylamino)-9-methyl-6-(3-(2-(methylamino)-1-phenylethoxy)phenyl)-6,7,8,9-tetrahydro-5H-pyrimido[4,5-e][1,4]diazepin-5-one], the inhibition constant (Ki) lay in the range of 500 to 3000 nM in experiment [1] (setting [3]), 500 to 3000 nM in experiment [1] (setting [4]) and 100 to 500 nM in experiment [2].

Source of the values: patent publication US10590140B2, “Tetrahydropyrimidodiazepine and dihydropyridodiazepine compounds for treating pain and pain related conditions” (ESTEVE PHARMACEUTICALS, S.A., priority 2016, dated 2020).
